From patent publication US20250221957A1, “PS[…] AND THEIR USE FOR TREATING […] AND NE[…] DISORDERS” (Transcend Therapeutics, Inc., priority 2021, published 2025)
Like-named read-outs stand apart in the source and are kept apart here. Marks after values point to notes of the source that are not given here.

Key:
rats = experiment: Open field test (OFT); type: in vivo, rat; settings: single methylone dose 5 or 15 mg/kg IP, 30 minutes before testing
Experimental: Data are mean +/− SEM. N=6 per group. * p<0.05; **p<0.01 vs. vehicle control group.
Method: Consecutive beam breaks and/or video-tracking of time spent in the center versus periphery of the open field are measured. Also measured are parameters such as distance traveled and ambulatory activity (horizontal and vertical) for the duration of the test session.
The open field test (OFT) capitalizes on a rodent's innate fear of open spaces to assess anxiety-like behavior. More time spent in the center of an open field reflects an anxiolytic (anti-anxiety) effect.

[1] = tested on: patients with a primary diagnosis of PTSD; experiment: Methylone PTSD case series with long-term follow-up (Example 5): CGI-I and safety; type: in vivo, human
Excerpt: The patients were not given structured psychotherapy in conjunction with methylone treatment, which differs from recent studies of MDMA that emphasize the importance of a manualized psychedelic-assisted psychotherapy model.
No protectedhealth information was disclosed, and no consent was obtained from patients for use of their archival data. Case narratives were systematically compiled from data collected as part of routine clinical work. Diagnoses were confirmed by an experienced clinician using semi-structured interviews. Baseline symptom severity was evaluated using the Clinical Global Impressions Scale-Severity ([…]). Symptom improvement was evaluated using the Clinical Global Impressions Scale-Improvement (CGI-I) following dosing. […] Because these case narratives were examined retrospectively from routine clinical care records, and not gathered prospectively in a research study, more specific validated rating scales for assessing PTSD symptoms were not available. Additionally, follow-up varied, with the length of follow-up ranging from one week (Case 2) to 15 years (Case 16).
Dosing summary: Methylone was administered orally. Other medications were not changed during methylone treatment. […] In several cases, treatment was continued and, in some cases, the dose was further escalated in later sessions (see Table 5). Booster doses were included for 19 patients in one or more of the sessions. Starting doses were between 100 and 270 mg, and these as well as booster doses were selected based on clinical judgement.

[2] = target: T1, serotonin transporter (SERT) (Rattus norvegicus, UniProt P31652); experiment: [3H]5HT uptake saturation in rat brain synaptosomes with or without methylone; type: biochemical
T1 construct: from tissue; host or cells: rat brain synaptosomes

168 GPCRs = experiment: DiscoverX PathHunter β-arrestin GPCR screen, agonist and antagonist mode; type: cell-based; settings: 1 and 10 micromolar
Experimental: For agonist determination, cells were incubated with sample to induce response. […] Vehicle concentration was 1%.
Vehicle concentration was 1%.

[3] = tested on: patients with a diagnosis of PTSD or MDD; healthy subjects; experiment: Methylone case series (Example 4, Cohorts 1 and 2): CGI-S/CGI-I and safety events; type: in vivo, human
Experimental: CGI-S scale was also evaluated in a subset of patients from Cohort 2 post-treatment. Cohort 2 was evaluated for any observed or reported safety events following a single dosing session.
Clinical Global Impressions (CGI) scale includes 2 components: CGI-S(“severity”) and CGI-I (“improvement”).
• 1=Normal—not at all ill, symptoms of disorder not present past seven days • 2=Borderline mentally ill-subtle or suspected pathology • 3=Mildly ill-clearly established symptoms with minimal, if any, distress or difficulty in social and occupational function • 4=Moderately ill-overt symptoms causing noticeable, but modest, functional impairment or distress; symptom level may warrant medication • 5=Markedly ill-intrusive symptoms that distinctly impair social/occupational function or cause intrusive levels of distress • 6=Severely ill-disruptive pathology, behavior and function are frequently influenced by symptoms, may require assistance from others • 7=Among the most extremely ill patients-pathology drastically interferes in many life functions; may be hospitalized
Only sessions that included methylone dosing were counted as dosing sessions.
Single sessions occurred for 8 of the 28 cases with no booster in two of these cases. In the remainder of the cases, multiple sessions occurred, and booster doses were used in all or some of the remaining patients ([…]) with multiple booster doses used in some or all of the sessions in 15 patients.

[4] = target: dopamine (DA) transporter (Homo sapiens, UniProt Q01959); experiment: Radioligand binding, [3H] WIN35428
[5] = target: serotonin (5HT) transporter (Homo sapiens, UniProt P31645); experiment: Radioligand binding, [3H] citalopram
serotonin transporter = serotonin transporter (Homo sapiens, UniProt P31645); settings: cited from earlier work
[6] = target: norepinephrine (NE) transporter (Homo sapiens, UniProt P23975); experiment: Radioligand binding, [3H] nisoxetine
[7] = cited from earlier work
[8] = rats, intraperitoneal administration

T1 sequence (P31652 whole entry): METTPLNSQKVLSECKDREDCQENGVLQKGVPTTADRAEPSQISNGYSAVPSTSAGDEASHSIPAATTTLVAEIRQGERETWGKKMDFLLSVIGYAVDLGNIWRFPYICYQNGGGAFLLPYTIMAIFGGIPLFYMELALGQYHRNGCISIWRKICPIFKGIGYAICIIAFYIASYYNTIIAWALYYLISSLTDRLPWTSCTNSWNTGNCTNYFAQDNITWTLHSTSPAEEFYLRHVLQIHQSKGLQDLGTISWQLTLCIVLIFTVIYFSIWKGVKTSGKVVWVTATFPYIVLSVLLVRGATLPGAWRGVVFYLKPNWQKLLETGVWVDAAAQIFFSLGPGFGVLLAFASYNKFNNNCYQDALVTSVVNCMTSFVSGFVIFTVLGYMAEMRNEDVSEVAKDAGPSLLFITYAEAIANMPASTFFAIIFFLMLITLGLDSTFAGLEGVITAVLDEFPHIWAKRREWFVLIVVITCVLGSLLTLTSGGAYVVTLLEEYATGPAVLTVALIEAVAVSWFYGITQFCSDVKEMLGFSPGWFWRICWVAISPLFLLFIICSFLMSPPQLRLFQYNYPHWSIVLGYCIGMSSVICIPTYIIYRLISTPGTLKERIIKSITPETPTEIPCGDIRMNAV
Chain of dopamine (DA) transporter (Q01959 whole entry): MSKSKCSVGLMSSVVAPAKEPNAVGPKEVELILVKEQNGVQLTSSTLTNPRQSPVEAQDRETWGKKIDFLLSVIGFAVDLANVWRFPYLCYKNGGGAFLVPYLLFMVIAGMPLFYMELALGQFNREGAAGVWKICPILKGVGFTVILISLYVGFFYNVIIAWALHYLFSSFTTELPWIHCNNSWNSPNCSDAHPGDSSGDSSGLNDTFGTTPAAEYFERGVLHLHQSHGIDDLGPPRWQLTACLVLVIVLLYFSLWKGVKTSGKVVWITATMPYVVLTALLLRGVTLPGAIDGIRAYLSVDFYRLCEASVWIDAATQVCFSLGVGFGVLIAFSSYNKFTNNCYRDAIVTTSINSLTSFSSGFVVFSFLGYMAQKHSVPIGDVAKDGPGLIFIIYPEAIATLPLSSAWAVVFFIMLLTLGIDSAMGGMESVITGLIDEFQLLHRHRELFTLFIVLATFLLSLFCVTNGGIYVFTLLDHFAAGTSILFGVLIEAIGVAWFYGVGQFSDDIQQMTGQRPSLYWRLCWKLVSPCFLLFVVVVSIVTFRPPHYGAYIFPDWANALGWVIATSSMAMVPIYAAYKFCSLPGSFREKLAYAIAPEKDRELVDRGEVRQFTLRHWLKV
Chain of norepinephrine (NE) transporter (P23975 whole entry): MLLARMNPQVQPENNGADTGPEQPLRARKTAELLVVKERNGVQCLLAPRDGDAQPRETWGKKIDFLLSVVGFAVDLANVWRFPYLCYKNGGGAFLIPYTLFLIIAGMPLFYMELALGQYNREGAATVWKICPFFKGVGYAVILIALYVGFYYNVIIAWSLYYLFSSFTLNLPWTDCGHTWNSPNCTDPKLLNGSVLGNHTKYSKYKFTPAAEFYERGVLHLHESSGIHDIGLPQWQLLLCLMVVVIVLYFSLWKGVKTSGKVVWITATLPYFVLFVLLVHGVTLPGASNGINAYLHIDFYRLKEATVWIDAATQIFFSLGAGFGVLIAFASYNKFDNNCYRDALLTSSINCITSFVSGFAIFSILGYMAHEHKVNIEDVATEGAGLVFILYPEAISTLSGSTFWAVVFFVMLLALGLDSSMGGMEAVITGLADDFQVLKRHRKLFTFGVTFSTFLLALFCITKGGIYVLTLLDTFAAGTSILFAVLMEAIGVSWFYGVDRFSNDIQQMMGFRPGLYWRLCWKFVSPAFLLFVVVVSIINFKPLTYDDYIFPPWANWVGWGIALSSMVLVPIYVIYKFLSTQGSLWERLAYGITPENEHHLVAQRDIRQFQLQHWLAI
Chain of serotonin transporter (P31645 whole entry): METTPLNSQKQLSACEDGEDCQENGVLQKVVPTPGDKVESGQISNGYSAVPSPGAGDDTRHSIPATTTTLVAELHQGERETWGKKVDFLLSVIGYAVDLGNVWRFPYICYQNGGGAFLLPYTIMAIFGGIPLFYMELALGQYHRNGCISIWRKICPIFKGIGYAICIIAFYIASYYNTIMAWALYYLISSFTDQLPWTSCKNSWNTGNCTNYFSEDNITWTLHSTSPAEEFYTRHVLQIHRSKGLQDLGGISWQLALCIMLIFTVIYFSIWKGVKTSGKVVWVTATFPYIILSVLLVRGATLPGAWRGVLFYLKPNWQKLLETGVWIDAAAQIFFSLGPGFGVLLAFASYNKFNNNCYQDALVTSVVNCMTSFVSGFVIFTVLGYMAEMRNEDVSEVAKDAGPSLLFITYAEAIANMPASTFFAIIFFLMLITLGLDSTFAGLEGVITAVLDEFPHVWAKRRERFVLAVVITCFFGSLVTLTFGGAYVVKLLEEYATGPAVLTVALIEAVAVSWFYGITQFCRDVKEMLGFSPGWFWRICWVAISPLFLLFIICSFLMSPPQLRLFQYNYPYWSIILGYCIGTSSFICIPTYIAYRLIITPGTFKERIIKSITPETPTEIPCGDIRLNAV
Chain of serotonin (5HT) transporter (P31645 whole entry): as above

In the case of CNC(C)C(=O)c1ccc2c(c1)OCO2 (stereo not shown) [methylone, 3,4-methylenedioxy-N-methylcathinone], the “time spent in the center of the open field compared to vehicle” value (rats) was “significantly increases”, the “patients achieving CGI-I much improved or very much improved” value ([1]; 21 PTSD patients) was 81% and the tolerability ([1]; 21 PTSD patients) was “generally well tolerated”. The “patients reporting a durable effect” value ([1]; durability captured for 17 of 21 patients) was 16, the “total adverse events noted” value ([1]; in three of the 21 patients, none severe) was “four” and the “patients with durable effect >six months” value ([1]; in vivo) was 11. For the same molecule, the “patients achieving a CGI-I of 1 or 2” value ([1]; of 21 PTSD patients) was 17, the “patients achieving CGI-I scores of 1 or 2” value ([1]; patients who received only a single dose of methylone (n=9)) was 89% and the “patients with initial improvement after the initial session” value ([1]; patients with multiple methylone dosing sessions (n=12)) was 83%. For the same molecule, the “type of interaction at the SERT” value [2] was “competitive”, the “Bmax of [3H]5HT uptake” value ([2]; in the presence of methylone) was “no decrease” and the “Kd of [3H]5HT uptake” value ([2]; in the presence of methylone) was “right shifted”. For the same molecule, the “agonist or antagonist activity (criteria: >30% activity, >50% inhibition)” value (168 GPCRs) was “did not meet criteria for agonist or antagonist activity”, the “Number of cases (N = 28), Magnitude of Improvement” value (shortened to “Number of cases”) [3] was 0 and the “adverse effects or after-effects” value ([3]; Cohort 1, 4 healthy subjects, single session, total dose 790 or 870 mg oral) was “no adverse effects or after-effects were observed or reported”. For the same molecule, the “cases in which methylone dosing was well tolerated and no safety events were reported” value ([3]; Cohort 2, 25 of 28 cases) was 89.3%, the “patients with initial improvement with the first methylone session” value ([3]; Cohort 2, 25 of 28 patients) was about 90% and the “patients achieving CGI-I 1 or 2” value ([3]; Cohort 2 MDD subset, 8/8 patients) was 100%. The “patients achieving CGI-I 1 or 2” value ([3]; Cohort 2 PTSD subset, 16/20 patients) was 80%, the “patients achieving CGI-I 1 or 2 (much improved or very much improved)” value ([3]; Cohort 2 overall, N=28, oral methylone, single or multiple sessions, compared to baseline CGI-S) was 86% and the “cases reporting a durable effect” value ([3]; MDD subset of Cohort 2, 6 narratives with durability information) was 5. For the same molecule, the “cases with durable effect of 6 months or greater” value ([3]; PTSD subset of Cohort 2) was 12, the “case narratives reporting a durable effect” value ([3]; PTSD subset of Cohort 2, 16 narratives with durability information) was 15 and the “patients with magnitude of improvement CGI 1 or 2” value ([3]; PTSD subset, of 5 patients with concomitant SSRIs or other antidepressant classes) was 4. For the same molecule, the “Number of cases” value ([3]; highest observed CGI-I = 1 (very much improved), Cohort 2) was 11*, the “Number of cases” value ([3]; highest observed CGI-I = 2 (much improved), Cohort 2) was 13 and the “Number of cases” value ([3]; highest observed CGI-I = 3 (minimally improved), Cohort 2) was 4. For the same molecule, the “Number of cases” value ([3]; highest observed CGI-I = 4 (no change), Cohort 2) was 0, the “Number of cases” value ([3]; highest observed CGI-I = 5 (minimally worse), Cohort 2) was 0 and the “Number of cases” value ([3]; highest observed CGI-I = 6 (much worse), Cohort 2) was 0. The “binding at the DA transporter” value [4] was “confirmed methylone binding”, the “binding at the 5HT transporter” value [5] was “confirmed methylone binding” and the “affinity for the serotonin transporter lower by comparison to MDMA” value (serotonin transporter) was 3 ×. The “binding at the NE transporter” value [6] was “confirmed methylone binding”, the “half-life shorter than MDMA” value ([7]; rat, in vivo) was over 50% and the half-life [7, 8] was 1 to 2 h. For the same molecule, the “time of peak brain and serum concentration” value [7, 8] was 15 to 30 min.
